In general, pKa refers to the pH at which an ionisable group is half protonated. The low end stands for a stronger acid or weaker base, the high end for a weaker acid or stronger base. Turning to `O=C(/C(=N/O)c1ccccc1)c1ccccc1`, for the setting “acidic group”, the pKa was found to be 8.8.
Turning to `CCCn1cnc2ccccc21`, where the note is “basic group”, the pKa worked out at 5.46.
Same read-out and setting: as for `COC(=O)C(C)(C)c1c[nH]c(CO)n1`, the figure is 6.18.
On to `Cc1nnc(NS(=O)(=O)c2ccc(N)cc2)s1`, for which the pKa by setting is: (acidic group) 5.46; (basic group) 2.19.
As to `Nc1ncnc2c1cnn2CCO`, the pKa (basic group) is 4.29.
Still for that read-out and setting: for `O=C1c2ccccc2CN1C1CC2CCC(C1)N2Cc1ccccc1` (stereo unspecified) the value was 8.71.
Consider `O=C1COC(=O)C1Br` (stereo unspecified), for which the pKa (acidic group) stood at 2.23.
Consider `C/C(=C\C=C\C(C)C(=O)[O-])[C@H]1CN[C@H](C(=O)[O-])[C@H]1CC(=O)[O-]` (stereo partly specified), for which the pKa (basic group) stood at 9.82.
Still for that read-out and setting: for `C[C@H](N)[C@H](O)c1ccc(O)cc1` the value was 8.69.
Same read-out and setting: for `Cc1nnc2c(c1C)CCC2` the value was 5.36; for `CCCNCc1ccccc1`, 9.62.
For the setting “basic group”, `CC(C)Nc1ccccc1` registered a pKa of 5.67.
The same measure, in the same setting: for `Cn1cnc2nc(N)nc([O-])c21` the value was 8.43.
Under “acidic group”, `CNc1nc(O)[n+]([C@@H]2C[C@@H](O)[C@H](CO)O2)cc1C` had a pKa of 4.04.
The compound `CCOc1ccc(N)cc1` came in with a pKa (basic group) of 5.25.
Turning to `Cc1cc(C)c(C)c(O)c1`, the pKa (acidic group) is 10.6.
In the case of `Cc1[nH]nc(O)c1C(C)C`, the pKa (basic group) amounted to 3.
As for `Cc1cc(C)c(C)c(C(=O)O)c1C`, the pKa (acidic group) worked out at 3.43.
Turning to `CNCC(C)CNC`, the pKa (basic group) was determined as 10.6.
With `[O-]c1nc(C(F)(F)F)nc2nc[nH]c12`, the pKa reads like this: (acidic group) 11.2; (basic group) 5.1.
`CC1=Nc2ccc([N+](=O)[O-])cc2N=C(C)C1`: the pKa (basic group) is 4.95.
`CCN(CC)C/C(C)=N/[O-]` came in with a pKa (basic group) of 11.
The same measure, in the same setting: as for `CNc1ccc[nH+]c1`, the figure is -2.17.
`CCCC(C(CC)CO)C(CC)C(=O)O` (stereo unspecified) gave a pKa (acidic group) of 4.78.
Same read-out and setting: as for `Fc1ccc(NC=S)cc1`, the figure is 11.2; as for `Nc1nc(O)[n+]([C@@H]2C[C@@H](O)[C@H](CO)O2)cc1CO`, 3.55.
Still for that read-out and setting: as for `O=C(O)[C@@H]1C[C@@H]1Br`, the figure is 4.09.
Compound `C=CC(=O)OCCN(C)C` yielded a pKa (basic group) of 7.9.
On the same count and under the same terms, as for `N#CCCNc1ccccc1`, the figure is 4.5.
Same read-out and setting: as for `Cc1cnoc1C`, the figure is 0.
In turn, `CC(C)CC(N)C(N)=O` (stereo unspecified) came in with a pKa (acidic group) of 8.
`CCN(CC)N(C)C` came in with a pKa (basic group) of 6.88.
`O=[N+]([O-])Nc1ccccc1` returned a pKa (acidic group) of 4.74.
In turn, `Cn1c(CBr)nc2c(O)ccc(O)c21` had a pKa (basic group) of 3.99.
Where the note is “basic group”, `NCCCCCCCCC(=O)[O-]` returned a pKa of 11.
Turning to `c1cn[nH]c1`, the pKa runs as follows: (acidic group) 14.2; (basic group) 2.61.
`Cc1c(Cn2cc[nH+]c2)oc2ccc(C(=O)O)cc12`: under “acidic group”, the pKa was 3.91.
Still for that read-out and setting: for `Oc1ccccc1Br` the value was 8.4.
With `Brc1cnc2c(ccc3cc(Br)cnc32)c1`, the pKa (basic group) was determined as 3.9.
As to `CC(C)c1ccccc1C(=O)O`, the pKa (acidic group) was 3.64.
In turn, `CCCc1nc2cc(OCC)ccc2[nH]1` displayed a pKa (basic group) of 6.12.
Still for that read-out and setting: as for `NCCc1ccccc1`, the figure is 9.89.
Where the note is “acidic group”, `O=C(O)Cc1ccccc1` gave a pKa of 4.27.
Regarding `CCCSCCN(CC)CC`, the pKa (basic group) was 8.83.
The same measure, in the same setting: as for `COC(=O)c1cc(Br)c(=O)n(N)c1`, the figure is 2.4.
Take `O=C(O)C[C@]1(O)C[C@@H]2CC[C@H]1C2`: the pKa (acidic group) turned out to be 4.46.
`CCNCCCC(=O)[O-]`: the pKa (basic group) turned out to be 11.
On the same count and under the same terms, as for `CSC(=N)c1ccccc1`, the figure is 5.84.
With `O=C(O)c1ccc([N+](=O)[O-])cc1`, the pKa (acidic group) stood at 3.43.
The same measure, in the same setting: for `CC(=O)C(C)C(C)=O` the value was 10.8.
Compound `Cc1ccc(S(=O)(=O)[N-]CCC(=N)N)cc1` yielded a pKa (basic group) of 10.8.
Consider `Cc1cccc(/C=N/O)n1`, for which, for the setting “acidic group”, the pKa was 10.
On the same count and under the same terms, for `CC(=O)Sc1ccc(O)cc1` the value was 8.88.
The compound `C[NH+](C)CCCNc1c2ccccc2nc2cccc([N+](=O)[O-])c12` came in with a pKa (basic group) of 6.2.
On the same count and under the same terms, for `CCC(=O)C(CCN1CCCCC1)(c1ccccc1)c1ccccc1` the value was 8.86.
Same read-out and setting: as for `CC(C)(C)NC[C@H](O)COc1nsnc1N1CCOCC1`, the figure is 9.7.
Where the note is “basic group”, `Cn1ccc(=S)cc1` gave a pKa of 1.36.
Still for that read-out and setting: as for `Nc1ccnc(N)n1`, the figure is 7.26.
With `O=C(Oc1ccc([N+](=O)[O-])cc1)C1c2ccccc2-c2ccccc21`, the pKa (acidic group) worked out at 9.9.
The same measure, in the same setting: for `CC[NH+](CC)Cc1c(O)c(Cl)cc(Cl)c1Cl` the value was 5.13; for `COc1cc(OC)nc([N-]S(=O)(=O)c2ccc(O)cc2)n1`, 9.05.
In turn, `OC[C@@H]1CCN2CC[C@H](O)[C@H]12` yielded a pKa (basic group) of 10.2.
With `Cc1cc(=O)oc2ccc(O)cc12`, the pKa (acidic group) is 9.14.
On to `O=C(O)/C=C\c1cccc(Cl)c1`, for which the pKa (acidic group) was 3.71.
Still for that read-out and setting: as for `CC(C)(C)C(=O)NO`, the figure is 9.59.
`Nc1ccnc(-c2ccccn2)c1` yielded a pKa (basic group) of 8.1.
As to `OC(c1ccccc1)c1ccccn1` (stereo unspecified), the pKa came to 12.8 (acidic group) and 4.44 (basic group).

Source of the values: the pKa sets of Baltruschat and Czodrowski (2020).
